The text below walks through data of patent publication US7563882B2, “Polynucleotides encoding antibodies that bind to the C35 polypeptide” (University of Rochester, priority 2002, dated 2009).

Holding throughout (format): cell-based, human
Experiment [1] has as its system EBV-B target cells. Nature of the experiment: C35 peptide mediated T cell lysis of peptide pulsed EBV-B cells (Table 10). The following applies: for % Lysis EBV-B cell Target: target pulsed with peptide.
The subject of experiment [2] is 21NT. Nature of the experiment: 51Cr release, CD8+ cells stimulated with K104-V113 peptides (Example 17). The following applies: target 21NT, CD8+ cells of donor stimulated with peptide pulsed DCs; for Raw Chromium Values: Table 13; for Percentage of Target Cells Lysed: Table 14.
The test system of experiment [3] is H16.A2. Described as above. The note with it: for Raw Chromium Values: target H16.A2.
For experiment [4], the system named is Mel F002. The experiment is described as above. The note with it: for Raw Chromium Values: Table 15 (repeat), target Mel F002, effector to target 30:1, CD8+ cells 12 days in IL-2 after fourth stimulation; for Percentage of Target Cells Lysed: Table 16 (repeat), effector to target 30:1, CD8+ cells 12 days in IL-2 after fourth stimulation.
Experiment [5] deals with 21NT.A2-Ser. Described as above. The note with it: target 21NT.A2-Ser, effector to target 30:1, CD8+ cells 12 days in IL-2 after fourth stimulation; for Raw Chromium Values: Table 15 (repeat); for Percentage of Target Cells Lysed: Table 16 (repeat).
In experiment [6] the test system is Mel 1359. Described as above. The following applies: target Mel 1359, effector to target 30:1, CD8+ cells 12 days in IL-2 after fourth stimulation; for Raw Chromium Values: Table 15 (repeat); for Percentage of Target Cells Lysed: Table 16 (repeat).
Experiment [7] concerns 21NT.A2. The description is as above. The following applies: target 21NT.A2.
Experiment [8] relates to PCl-13 K104-V113-Ser. Described as above. The note with it: CD8+ cells of donor stimulated with peptide pulsed DCs; for Raw Chromium Values: Table 13, target PCl-13 K104-V113-Ser; for Percentage of Target Cells Lysed: Table 14, target Pcl-13 K104-V113-Ser.
Experiment [9] concerns PCl-13. Described as above. The following applies: target PCl-13, CD8+ cells of donor stimulated with peptide pulsed DCs; for Raw Chromium Values: Table 13; for Percentage of Target Cells Lysed: Table 14.
The subject of experiment [10] is K562. The description is as above. The note with it: for Raw Chromium Values: target K562.
Experiment [11] relates to Mel 1700. The experiment is described as above. The following applies: target Mel 1700, effector to target 30:1, CD8+ cells 12 days in IL-2 after fourth stimulation; for Raw Chromium Values: Table 15 (repeat); for Percentage of Target Cells Lysed: Table 16 (repeat).
Experiment [12] has as its system Mel 501. Described as above. The following applies: target Mel 501, effector to target 30:1, CD8+ cells 12 days in IL-2 after fourth stimulation; for Raw Chromium Values: Table 15 (repeat); for Percentage of Target Cells Lysed: Table 16 (repeat).
Where [13] appears, read: T cell clones from donor with A3, A66, B8 and B41 HLA haplotypes.
[14] abbreviates: T cell clone #72, donor (A2, A3; B18, B44).
Setting [15] is: T cell clone #75, donor (A2, A3; B18, B44).
[16] abbreviates: T cell clone #104, donor (A2, A3; B18, B44).
Setting [17] is: T cells from donor with A2, A3, B18, B44 HLA haplotypes raised against 9mer 22-30.
The mark [18] stands for this setting: Table 13, CD8+ cells of donor stimulated with peptide pulsed DCs.
Setting [19] is: Table 14, CD8+ cells of donor stimulated with peptide pulsed DCs.
[20] abbreviates: Table 15 (repeat), effector to target 30:1, CD8+ cells 12 days in IL-2 after fourth stimulation.
Where [21] appears, read: Table 16 (repeat), effector to target 30:1, CD8+ cells 12 days in IL-2 after fourth stimulation.

GGFPYEKDL [peptide 81-89]: in experiment [1] (setting [13]), the “lytic activity on EBV-B target cells pulsed with peptide” value was 40.3%.

In the case of GVRIVVEYC [peptide 22-30], the “% Lysis EBV-B cell Target” value is on record as 72.8% in experiment [1] (setting [14]), 56.8% in experiment [1] (setting [15]) and 100.3% in experiment [1] (setting [16]). The “lytic activity on EBV-B target cells pulsed with peptide” value in [1] (setting [17]) is “very active”.

As to “peptide 17-31: 15mer corresponding to amino acids 17-31 of C35 (SEQ ID NO:2) (VEPGSGVRIVVEYCE; listed as Homo sapiens)”, the “% Lysis EBV-B cell Target” value is listed as 0.5% in [1] (setting [14]), 1.2% in [1] (setting [15]) and 6.4% in experiment [1] (setting [16]). Also, in experiment [1] (setting [17]), the “lytic activity on EBV-B target cells pulsed with peptide” value is reported as “minimal lysis”.

Turning to IEINGQLVF [peptide 67-75], the “lytic activity on EBV-B target cells pulsed with peptide” value in experiment [1] (setting [13]) is listed as 54.9%.

As for KITNSRPPCV [K104-V113], the “Raw Chromium Values” in experiment [2] stood at 137; in [3] (setting [18]), 483; in experiment [3] (setting [20]) it was 948; in experiment [4], 1156; in experiment [5] it was 3729; in experiment [6] it was 2758. Moreover, the “Raw Chromium Values” was 1429 in experiment [7] (setting [18]); 2753 in experiment [7] (setting [20]); 1403 in [8]; 804 in experiment [9]; 311 in [10] (setting [18]); 1156 in [10] (setting [20]). In addition, the results for the “Raw Chromium Values” in experiment [11] and in [12] were 1964 and 3729, respectively. Moreover, the “Percentage of Target Cells Lysed” value is −1.5% in experiment [2]; 0.9% in experiment [3] (setting [19]); 4.3% in [3] (setting [21]); 15.7% in experiment [4]; 41.5% in [5]; 7.0% in [6]. In addition, the “Percentage of Target Cells Lysed” value in experiment [7] (setting [19]) stood at 22.4%; in experiment [7] (setting [21]) it was 24.6%; in experiment [8], 24.8%; in experiment [9], 7.6%; in experiment [10] (setting [19]) it was 2.0%; in experiment [10] (setting [21]) it was 8.0%. For the same substance, the entries for the “Percentage of Target Cells Lysed” value in experiment [11] and in experiment [12] were 8.9% and 36.0%, respectively.

Take QLVFSKLENGGFPYE [peptide 72-86]: the “% Lysis EBV-B cell Target” value in experiment [1] (T cell clone #46, donor (A2, A3; B18, B44)) is listed as 78.5%. Also, the “lytic activity on EBV-B cells pulsed with peptide” value in [1] (T cell clones from donor with A2, A3, B18, B44 HLA haplotypes) was 78.5%.

For the substance “K104-V113-cys-cys: K104-V113 peptide fragment of C35 containing a cysteinylated cysteine at amino acid position 112”, the “Raw Chromium Values” in experiment [2] amounted to 171; in experiment [3] (setting [18]), 440; in experiment [3] (setting [20]) it was 1024; in experiment [4] it was 1713; in experiment [5], 4474; in [6] it was 2299. The “Raw Chromium Values” was determined as 1329 in experiment [7] (setting [18]); 2337 in experiment [7] (setting [20]); 1772 in experiment [8]; 486 in [9]; 287 in [10] (setting [18]); 1713 in [10] (setting [20]). Further, the “Raw Chromium Values” in experiment [11] came to 1857; in experiment [12], 4474. The “Percentage of Target Cells Lysed” value in experiment [2] was −0.1%; in experiment [3] (setting [19]), 0.2%; in [3] (setting [21]), 5.8%; in experiment [4], 11.2%; in [5], 51.9%; in [6], 2.5%. Also, the “Percentage of Target Cells Lysed” value in experiment [7] (setting [19]) is 20.1%; in [7] (setting [21]), 19.1%; in experiment [8], 35.3%; in [9] it was −1.7%; in experiment [10] (setting [19]) it was 0.9%; in [10] (setting [21]) it was 16.2%. Moreover, the “Percentage of Target Cells Lysed” value in experiment [11] amounted to 7.2%; in [12], 21.2%.

As for “KITNSRPPSV (synthetic analog of human C35 epitope) [K104-V113-Ser]”, the “Raw Chromium Values” is recorded as 185 in experiment [2]; 584 in [3] (setting [18]); 1018 in experiment [3] (setting [20]); 974 in experiment [4]; 4762 in experiment [5]; 2357 in [6]. The “Raw Chromium Values” is on record as 3228 in experiment [7] (setting [18]); 4957 in experiment [7] (setting [20]); 2588 in experiment [8]; 581 in experiment [9]; 323 in experiment [10] (setting [18]); 974 in [10] (setting [20]). The “Raw Chromium Values” in experiment [11] was found to be 2951; in experiment [12], 4762. In addition, the “Percentage of Target Cells Lysed” value in experiment [2] turned out to be 0.5%; in experiment [3] (setting [19]), 2.6%; in experiment [3] (setting [21]), 5.6%; in experiment [4] it was 15.1%; in experiment [5], 56.0%; in experiment [6], 3.0%. Further, the “Percentage of Target Cells Lysed” value is listed as 63.2% in experiment [7] (setting [19]); 53.4% in experiment [7] (setting [21]); 58.7% in experiment [8]; 1.1% in [9]; 2.5% in experiment [10] (setting [19]); 5.3% in experiment [10] (setting [21]). In addition, the figures for the “Percentage of Target Cells Lysed” value in experiment [11] and in experiment [12] were 24.1% and 45.3%, respectively.

Regarding “KITNSRPPAV (synthetic analog of human C35 epitope) [K104-V113-Ala]”, the “Raw Chromium Values” in experiment [2] is on record as 155; in experiment [3] (setting [18]) it was 479; in experiment [3] (setting [20]) it was 829; in experiment [4], 815; in [5], 2423; in experiment [6], 3050. Also, the “Raw Chromium Values” was 763 in [7] (setting [18]); 1365 in [7] (setting [20]); 746 in experiment [8]; 468 in [9]; 246 in [10] (setting [18]); 815 in experiment [10] (setting [20]). Besides, the “Raw Chromium Values” in [11] was determined as 1543; in experiment [12], 2423. Moreover, the “Percentage of Target Cells Lysed” value in [2] is −0.7%; in experiment [3] (setting [19]) it was 0.9%; in experiment [3] (setting [21]), 2.0%; in [4], 7.6%; in experiment [5], 22.5%; in experiment [6], 9.9%. Also, the “Percentage of Target Cells Lysed” value is on record as 7.3% in [7] (setting [19]); 6.4% in experiment [7] (setting [21]); 6.0% in experiment [8]; −2.2% in [9]; −0.9% in experiment [10] (setting [19]); 2.9% in experiment [10] (setting [21]). Besides, the “Percentage of Target Cells Lysed” value turned out to be 2.4% in [11] and 11.1% in experiment [12].
